Experimental data taken from PMC6326779 (Science (New York, N.Y.), 2018).

What was measured:
IKZF2 ZF2 = IKZF2 ZF2 (Homo sapiens, UniProt Q96SW2+Q9UKS7); assay: Degradation reporter analysis of IKZF2 ZF2; assay type: cell-based
[1] = test system: endogenous, full-length WIZ; conditions: WSU-DLCL2 and TMD8 cells; cited from earlier work
[2] = target: CRBN-pomalidomide (Alexa488DDB1ΔB-CRBN-pomalidomide-biotinIKZF1 ZF1-2-3) (Homo sapiens, UniProt Q96SW2)
[3] = test system: ZFs that bound CRBN-pomalidomide in the biochemical assay; assay type: cell-based, human; conditions: WIZ ZF7, cells
[4] = test system: human C2H2 ZF library in HEK293T cells; assay: C2H2 zinc finger library screen; assay type: cell-based; conditions: FDR <0.01, 5,611 ZFs assayed, 1 μM, 20 hours
[5] = target: human C2H2 ZF library in HEK293T cells (Homo sapiens, UniProt Q9UKS7); assay: C2H2 zinc finger library screen; assay type: cell-based; conditions: 1 μM, 20 hours
Chain of human C2H2 ZF library in HEK293T cells (Homo sapiens, UniProt Q9UKS7) (Q9UKS7 140-162): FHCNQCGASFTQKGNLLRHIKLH
Chain of human C2H2 ZF library in HEK293T cells (Homo sapiens, UniProt Q9UKS7) (Q96SW2 whole entry partner): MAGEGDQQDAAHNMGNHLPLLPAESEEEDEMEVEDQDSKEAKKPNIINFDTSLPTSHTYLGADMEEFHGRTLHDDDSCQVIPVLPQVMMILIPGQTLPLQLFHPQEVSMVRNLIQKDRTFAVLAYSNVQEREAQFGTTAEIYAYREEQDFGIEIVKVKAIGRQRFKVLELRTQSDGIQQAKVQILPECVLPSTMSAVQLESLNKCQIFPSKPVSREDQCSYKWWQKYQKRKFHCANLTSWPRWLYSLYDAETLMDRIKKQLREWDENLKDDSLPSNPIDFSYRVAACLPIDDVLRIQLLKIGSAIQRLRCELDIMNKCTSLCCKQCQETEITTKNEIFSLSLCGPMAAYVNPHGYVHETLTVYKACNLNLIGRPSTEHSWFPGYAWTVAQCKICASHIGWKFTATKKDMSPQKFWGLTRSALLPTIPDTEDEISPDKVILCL

Chain of IKZF2 ZF2 (Q96SW2 whole entry): as the sequence (Q96SW2 whole entry partner) above
Chain of IKZF2 ZF2 (Q16531 2-1140 partner limits assumed): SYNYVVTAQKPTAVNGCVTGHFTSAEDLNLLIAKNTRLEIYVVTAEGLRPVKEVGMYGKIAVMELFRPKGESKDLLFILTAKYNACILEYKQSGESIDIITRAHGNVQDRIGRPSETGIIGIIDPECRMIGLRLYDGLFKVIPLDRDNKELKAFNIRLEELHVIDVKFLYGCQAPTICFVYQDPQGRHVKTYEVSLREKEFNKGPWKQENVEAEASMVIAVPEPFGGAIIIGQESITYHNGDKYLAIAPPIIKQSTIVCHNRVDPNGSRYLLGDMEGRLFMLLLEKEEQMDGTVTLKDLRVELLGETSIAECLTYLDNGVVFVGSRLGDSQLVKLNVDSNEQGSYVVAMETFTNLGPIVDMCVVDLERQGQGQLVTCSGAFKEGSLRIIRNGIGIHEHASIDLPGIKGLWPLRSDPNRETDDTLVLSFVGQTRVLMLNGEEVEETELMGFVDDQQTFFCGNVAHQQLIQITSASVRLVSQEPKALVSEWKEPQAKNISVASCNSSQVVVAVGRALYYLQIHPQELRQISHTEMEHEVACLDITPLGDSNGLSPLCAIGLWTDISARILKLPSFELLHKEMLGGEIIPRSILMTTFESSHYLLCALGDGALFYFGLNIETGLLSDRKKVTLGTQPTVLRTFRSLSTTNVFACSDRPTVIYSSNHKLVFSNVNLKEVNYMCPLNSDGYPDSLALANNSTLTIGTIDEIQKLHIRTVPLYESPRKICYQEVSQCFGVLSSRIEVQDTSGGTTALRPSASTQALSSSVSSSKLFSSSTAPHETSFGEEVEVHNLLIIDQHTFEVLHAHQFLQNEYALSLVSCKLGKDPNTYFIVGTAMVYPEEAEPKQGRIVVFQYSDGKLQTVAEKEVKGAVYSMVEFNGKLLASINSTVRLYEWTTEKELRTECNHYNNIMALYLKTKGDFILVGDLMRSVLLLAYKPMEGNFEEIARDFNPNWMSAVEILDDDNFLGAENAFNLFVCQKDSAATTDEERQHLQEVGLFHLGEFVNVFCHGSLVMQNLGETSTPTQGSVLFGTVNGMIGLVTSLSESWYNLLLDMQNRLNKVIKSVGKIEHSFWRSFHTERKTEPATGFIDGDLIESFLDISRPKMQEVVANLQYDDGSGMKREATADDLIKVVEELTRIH
Chain of CRBN-pomalidomide (Alexa488DDB1ΔB-CRBN-pomalidomide-biotinIKZF1 ZF1-2-3) (Q96SW2 whole entry, stated change not applied): as the sequence (Q96SW2 whole entry partner) above

Compound	degradation of IKZF2 ZF2 (in words) (IKZF2 ZF2)	degradation of endogenous, full-length WIZ [1]	factor of decrease in binding affinity, ZF2-ZF1 versus ZF2-ZF3 [2]	degradation of WIZ ZF7 in the degradation reporter [3]	number of C2H2 ZFs depleted [4]	degradation of the IKZF2 ZF2 reporter (IKZF2 ZF2; validation experiments)	degradation of IKZF2 ZF2 in the C2H2 ZF library screen [5]
Cc1nc2cccc(N)c2c(=O)n1C1CCC(=O)NC1=O (stereo not shown) [CC-122]	not degraded	confirmed degradation					
Nc1cccc2c1CN(C1CCC(=O)NC1=O)C2=O (stereo not shown) [lenalidomide]		confirmed degradation					
Nc1cccc2c1C(=O)N(C1CCC(=O)NC1=O)C2=O (stereo not shown) [pomalidomide]	not degraded		6	partial degradation	11		
O=C1CC[C@H](N2Cc3c(OCc4ccc(CN5CCOCC5)cc4)cccc3C2=O)C(=O)N1 [CC-220]	efficiently degraded					more than 40%	selectively degraded
